How the values were obtained:
HFF+hTERT cells [1] = assay: Apoptosis, cleaved caspase-3 (IF / immunoblot); format: cell-based, human; details: 3 μM for 4 or 7 days
Experimental: (§1) Immunofluorescence and telomere FISH assay. Cells were fixed with 4% paraformaldehyde (PFA) for 15 minutes. Cells were then washed, permeabilized with 0.5% Triton-X-100 in PBS, blocked with 5% donkey serum and 0.3% Triton X-100 in TBS and incubated with primary antibodies against γH2A.X (1:500, rabbit), or cleaved caspase-3 (1:400, rabbit) (Cell Signaling); and/or TRF2 (1:200) (Mouse; NOVUS), as applicable, for overnight followed by TBST wash (×3) next day. Corresponding secondary antibodies were added (Alexa-Fluor 488- or 594-conjugated donkey anti-rabbit, or anti-mouse (1:500) (Jackson ImmunoResearch) for 1 hour and washed with TBS (×3) before mounting. For telomere-FISH, fixed and permeabilized cells were dehydrated with a graded ethanol concentration series, air-dried and covered with hybridization solution (70% formamide, 0.5% Blocking Reagent (Roche Diagnostics) diluted in 100 mM maleic acid and 150 mM sodium chloride, and 10 mM Tris (pH 7.5)) with 300 ng/mL PNA(CCCTAA)3-Cy3 (SEQ ID NO: 1) (Biosynthesis, USA), and denatured for 6 minutes at 84° C. followed by hybridization for at least two hours at room temperature. Cells were washed three times with 70% formamide and 10 mM Tris (pH 7.5) and three times with TBS. Finally, they were embedded with mounting media with DAPI (Vector Laboratories H1200).
(§2) Western blot. Western blot was performed as described previously (22). Antibodies used were against ATMS1981P (R & D Systems); ATM (SIGMA); ATR-T1989P (GeneTex); and ATR, CHK1-S345P, CHK1, CHK2-T68P, CHK2, Cleaved Caspase-3, and β-actin (Cell Signaling). Bands were visualized using ECL with Azurec500 imaging system (Azure Biosystems). Band intensities were quantified using ImageJ software (Ver. 1.49u, NIH, USA).

HeLa cells = assay: Apoptosis, cleaved caspase-3 (IF / immunoblot); format: cell-based, human; details: 3 μM for 4 or 7 days
Experimental: as §1, §2

HFF cells [2] = assay: Apoptosis, cleaved caspase-3 (IF / immunoblot); format: cell-based, human; details: 3 μM for 4 or 7 days
Experimental: as §1, §2

HFF+hTERT cells [3] = assay: Cell cycle analysis (PI flow cytometry); format: cell-based, human
Experimental: (§3) Cell cycle analysis. Following treatment with 6-thio-dG or DMSO, cells were collected in PBS, fixed with ice-cold 70% ethanol and were kept in −20° C. for at least an hour. Cells were then washed and stained with propidium iodide (PI) solution containing 25 μg/mL PI (Sigma), and 100 μg/mL Ribonuclease-A (Sigma) for 30 minutes in the dark. Flow cytometry was performed on BD FACS Canto II and cells were analyzed using FlowJo v.10 (FlowJo, USA) software.

HFF cells [4] = assay: Cell cycle analysis (PI flow cytometry); format: cell-based, human; details: 3 μM, three days
Experimental: as §3

HFF+hTERT cells [5] = assay: Senescence-associated β-galactosidase assay; format: cell-based, human; details: 3 μM for 23 days
Text: (§4) Senescence assay. Senescence-associated β-galactosidase was detected as previously described (2). Cells were observed under the microscope until the development of the blue color and the reaction was terminated. Images were captured; stained and unstained cells were counted from multiple fields to quantitate the percent senescent cells.

HFF cells [6] = assay: Senescence-associated β-galactosidase assay; format: cell-based, human; details: 3 μM for 23 days
Text: as §4

HeLa = assay: Cell growth assay (viable cell count, trypan blue exclusion); format: cell-based; details: Homo sapiens, 168 h, 6-thio-dG treatment for 7 days
Experimental: (§5) Cell growth and sphere formation assay. After dissociating primary neurospheres by TrypLE express (Gibco), single cells were seeded in respective growth media in 6-well plates and were incubated for one week at varying concentrations (0.5 to 10 μM) of 6-thio-dG or DMSO. Fresh culture media were added every three days. Viable cell numbers were determined by trypan blue exclusion method. For sphere formation assay, MB004 single cells were seeded in limited dilution (10 cells/well in 96-well plate) and treated with DMSO or 6-thio-dG. Sphere formation was monitored by microscopy.

CCHMC-DIPG-1 = assay: as above; format: cell-based; details: Homo sapiens, 168 h, 6-thio-dG treatment for 7 days
Experimental: as §5

R0315-GBM = assay: as above; format: cell-based; details: Homo sapiens, 168 h, 6-thio-dG treatment for 7 days
Experimental: as §5

HFF + hTERT = assay: as above; format: cell-based, human; details: Homo sapiens, 168 h; 6-thio-dG treatment for 7 days; HFF + hTERT

## Nc1nc2c(ncn2[C@H]2C[C@H](O)[C@@H](CO)O2)c(=S)[nH]1 [6-thio-dG, 6-thio-2′-deoxyguanosine]
HFF+hTERT cells [1]
  apoptosis (cleaved caspase-3): did not show any evidence of apoptosis
HeLa cells
  cleaved caspase-3 signal (apoptosis): increase in cleaved caspase-3 signal
HFF cells [2]
  apoptosis (cleaved caspase-3): did not show any evidence of apoptosis
HFF+hTERT cells [3]; 3 μM 3 days, then drug removed
  cell cycle profile after drug removal: partially reverted to that of the vehicle control
HFF+hTERT cells [3]; 3 μM, three days
  cell cycle progression: caused G2/M arrest
HFF cells [4]
  G2/M arrest effect: negligible
HFF+hTERT cells [5]
  cells with senescence phenotype (SA-β-gal-positive): 30%
HFF cells [6]
  cells SA-β-gal-positive: 7%
HeLa
  IC50: 143 nM
CCHMC-DIPG-1
  IC50: 655 nM
R0315-GBM
  IC50: 1250 nM
HFF + hTERT
  IC50: 179 nM

— patent publication US12594293B2, “Use of 6-thio-dG to treat therapy-resistant telomerasepositive pediatric brain tumors” (The Board of Regents of The University of Texas System, priority 2018, dated 2026)
